Results published in ChEMBL document CHEMBL1138045 (J Med Chem, 2006).

Experiments:
[1] = target: Mitogen-activated protein kinase 8 (Homo sapiens, UniProt P45983); experiment: Inhibition of JNK1
[2] = target: Mitogen-activated protein kinase 9 (Homo sapiens, UniProt P45984); experiment: Inhibition of JNK2
[3] = Half life in mouse microsomes; type: ADME, Microsome
[4] = Half life in rat at 5 mg/kg, po; type: ADME, organism-based; set-up: dose 5 mg/kg, route oral; details: in vivo
[5] = Cmax in rat at 5 mg/kg, po; type: ADME, organism-based; set-up: dose 5 mg/kg, route oral; details: in vivo
[6] = Oral bioavailability in rat at 5 mg/kg, po; type: ADME, organism-based; details: in vivo
[7] = AUC in rat at 5 mg/kg, po; type: ADME, organism-based; set-up: dose 5 mg/kg, route oral; details: plasma
[8] = target: c-Jun N-terminal kinase, JNK (Homo sapiens, UniProt P45983+P53779+P45984); experiment: Inhibition of cJun phosphorylation in HepG2 cells; type: functional, cell-based
[9] = target: T1, Calcium/calmodulin-dependent protein kinase type IV (Homo sapiens, UniProt Q16566); experiment: Inhibition of CaMK4
T1 sequence (Q16566 whole entry): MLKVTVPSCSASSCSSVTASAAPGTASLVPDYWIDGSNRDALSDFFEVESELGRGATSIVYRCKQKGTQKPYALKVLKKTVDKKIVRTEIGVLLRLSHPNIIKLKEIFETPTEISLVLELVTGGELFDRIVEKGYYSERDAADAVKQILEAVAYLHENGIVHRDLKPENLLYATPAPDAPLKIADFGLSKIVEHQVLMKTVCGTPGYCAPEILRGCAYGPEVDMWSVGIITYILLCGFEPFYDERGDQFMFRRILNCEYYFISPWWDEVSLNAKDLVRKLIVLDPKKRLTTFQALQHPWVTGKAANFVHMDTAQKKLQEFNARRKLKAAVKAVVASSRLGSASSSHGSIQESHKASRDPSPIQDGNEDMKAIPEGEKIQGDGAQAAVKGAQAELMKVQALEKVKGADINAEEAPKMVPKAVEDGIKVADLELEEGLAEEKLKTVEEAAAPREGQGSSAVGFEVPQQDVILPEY

[10] = target: T2, Serine/threonine-protein kinase Sgk1 (Homo sapiens, UniProt O00141); experiment: Inhibition of SGk
T2 sequence (O00141 whole entry): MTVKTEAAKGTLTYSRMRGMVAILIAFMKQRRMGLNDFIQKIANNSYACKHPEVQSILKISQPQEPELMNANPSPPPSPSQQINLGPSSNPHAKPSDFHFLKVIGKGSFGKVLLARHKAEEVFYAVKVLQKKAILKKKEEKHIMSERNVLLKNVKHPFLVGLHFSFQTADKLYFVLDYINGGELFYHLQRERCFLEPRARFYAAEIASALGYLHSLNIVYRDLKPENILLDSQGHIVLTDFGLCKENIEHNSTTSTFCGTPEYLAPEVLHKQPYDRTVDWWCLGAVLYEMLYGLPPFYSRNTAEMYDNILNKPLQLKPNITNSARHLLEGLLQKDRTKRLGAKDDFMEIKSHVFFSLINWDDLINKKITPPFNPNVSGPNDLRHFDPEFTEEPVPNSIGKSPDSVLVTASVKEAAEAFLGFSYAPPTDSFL

[11] = Half life in rat microsomes; type: ADME, Microsome; details: liver microsomes
[12] = Inhibition of MAPKAPK; set-up: species or system Homo sapiens
[13] = target: Mitogen-activated protein kinase 10 (Homo sapiens, UniProt P53779); experiment: Inhibition of JNK3
Sequence of Mitogen-activated protein kinase 10 (P53779 whole entry): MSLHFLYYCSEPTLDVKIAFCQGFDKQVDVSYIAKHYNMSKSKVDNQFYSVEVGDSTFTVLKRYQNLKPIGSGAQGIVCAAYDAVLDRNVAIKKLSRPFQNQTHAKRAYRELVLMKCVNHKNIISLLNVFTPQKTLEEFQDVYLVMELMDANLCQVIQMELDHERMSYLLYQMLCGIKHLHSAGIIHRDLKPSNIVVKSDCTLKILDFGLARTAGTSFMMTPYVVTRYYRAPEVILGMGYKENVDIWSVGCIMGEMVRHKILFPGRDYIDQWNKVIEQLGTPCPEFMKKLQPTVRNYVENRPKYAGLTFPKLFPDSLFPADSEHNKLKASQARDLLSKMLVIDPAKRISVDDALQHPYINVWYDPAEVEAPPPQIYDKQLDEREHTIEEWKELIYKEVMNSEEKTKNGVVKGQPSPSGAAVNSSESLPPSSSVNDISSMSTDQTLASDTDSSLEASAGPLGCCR

[14] = Inhibition of IGFR; set-up: species or system Homo sapiens
Activated CDC42 kinase 1 = Activated CDC42 kinase 1 (Homo sapiens, UniProt Q07912); experiment: Inhibition of CDC42
Sequence of Activated CDC42 kinase 1 (Q07912 whole entry): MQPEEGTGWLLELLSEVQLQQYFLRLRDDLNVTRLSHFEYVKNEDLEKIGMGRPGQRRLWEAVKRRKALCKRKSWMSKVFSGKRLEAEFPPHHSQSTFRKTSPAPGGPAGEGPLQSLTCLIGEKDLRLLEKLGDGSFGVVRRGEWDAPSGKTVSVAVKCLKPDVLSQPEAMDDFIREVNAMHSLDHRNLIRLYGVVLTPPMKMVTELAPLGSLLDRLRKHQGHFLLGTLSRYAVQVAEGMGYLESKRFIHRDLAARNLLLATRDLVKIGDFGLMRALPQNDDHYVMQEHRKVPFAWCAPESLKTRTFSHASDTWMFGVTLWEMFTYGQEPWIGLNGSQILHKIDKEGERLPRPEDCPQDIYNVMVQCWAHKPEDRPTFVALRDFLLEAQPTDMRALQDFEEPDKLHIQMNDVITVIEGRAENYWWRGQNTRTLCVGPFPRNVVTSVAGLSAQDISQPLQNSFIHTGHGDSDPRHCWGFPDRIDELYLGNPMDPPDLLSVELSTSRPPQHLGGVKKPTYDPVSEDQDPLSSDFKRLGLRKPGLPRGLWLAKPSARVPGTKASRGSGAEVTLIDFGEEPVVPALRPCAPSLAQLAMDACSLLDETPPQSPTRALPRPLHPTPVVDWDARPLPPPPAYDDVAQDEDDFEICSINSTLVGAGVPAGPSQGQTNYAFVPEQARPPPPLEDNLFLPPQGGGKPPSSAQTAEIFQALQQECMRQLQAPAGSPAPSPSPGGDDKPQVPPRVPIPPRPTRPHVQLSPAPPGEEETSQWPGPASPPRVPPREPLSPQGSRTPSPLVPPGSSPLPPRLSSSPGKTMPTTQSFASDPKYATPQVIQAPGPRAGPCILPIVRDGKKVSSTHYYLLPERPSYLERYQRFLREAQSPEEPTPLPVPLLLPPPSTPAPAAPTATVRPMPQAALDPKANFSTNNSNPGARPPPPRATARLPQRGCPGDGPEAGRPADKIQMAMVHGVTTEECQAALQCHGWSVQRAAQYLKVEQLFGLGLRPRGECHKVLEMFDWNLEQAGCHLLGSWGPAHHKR

[15] = target: Voltage-gated inwardly rectifying potassium channel KCNH2 (Homo sapiens, UniProt Q12809); experiment: Displacement of [3H]dofetilide from hERG
Sequence of Voltage-gated inwardly rectifying potassium channel KCNH2 (Q12809 whole entry): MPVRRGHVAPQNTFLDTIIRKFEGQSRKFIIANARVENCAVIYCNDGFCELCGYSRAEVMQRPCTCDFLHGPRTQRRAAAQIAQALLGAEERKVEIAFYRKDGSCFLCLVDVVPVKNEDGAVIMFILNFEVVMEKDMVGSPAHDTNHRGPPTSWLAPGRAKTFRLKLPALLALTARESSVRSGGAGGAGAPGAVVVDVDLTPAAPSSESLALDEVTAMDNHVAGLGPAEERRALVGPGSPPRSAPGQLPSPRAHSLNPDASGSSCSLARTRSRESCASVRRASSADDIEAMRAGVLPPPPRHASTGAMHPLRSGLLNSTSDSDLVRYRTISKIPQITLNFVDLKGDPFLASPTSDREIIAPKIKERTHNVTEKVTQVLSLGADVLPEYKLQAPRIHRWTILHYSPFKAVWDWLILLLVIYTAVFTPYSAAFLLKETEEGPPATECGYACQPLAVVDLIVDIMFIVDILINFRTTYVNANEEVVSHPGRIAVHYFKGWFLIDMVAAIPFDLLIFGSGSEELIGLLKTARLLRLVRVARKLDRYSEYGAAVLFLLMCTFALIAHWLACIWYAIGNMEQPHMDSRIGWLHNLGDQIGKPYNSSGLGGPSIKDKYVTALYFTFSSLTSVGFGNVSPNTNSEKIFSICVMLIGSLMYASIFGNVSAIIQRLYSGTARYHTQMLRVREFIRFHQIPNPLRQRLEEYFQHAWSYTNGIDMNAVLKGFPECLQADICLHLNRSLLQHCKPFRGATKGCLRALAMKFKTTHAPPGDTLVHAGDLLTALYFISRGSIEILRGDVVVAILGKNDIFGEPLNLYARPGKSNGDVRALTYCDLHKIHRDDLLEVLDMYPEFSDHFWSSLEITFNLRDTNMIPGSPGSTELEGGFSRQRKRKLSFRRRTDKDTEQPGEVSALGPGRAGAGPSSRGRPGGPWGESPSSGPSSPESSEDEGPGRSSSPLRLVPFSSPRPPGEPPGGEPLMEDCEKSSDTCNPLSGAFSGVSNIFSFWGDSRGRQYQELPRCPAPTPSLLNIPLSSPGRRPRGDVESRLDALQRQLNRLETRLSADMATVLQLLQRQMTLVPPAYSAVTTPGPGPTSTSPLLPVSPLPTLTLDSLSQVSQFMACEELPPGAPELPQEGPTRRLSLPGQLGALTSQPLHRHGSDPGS

[16] = Half life in human microsomes; type: ADME, Microsome; details: liver microsomes

Sequence of Mitogen-activated protein kinase 8 (P45983 whole entry): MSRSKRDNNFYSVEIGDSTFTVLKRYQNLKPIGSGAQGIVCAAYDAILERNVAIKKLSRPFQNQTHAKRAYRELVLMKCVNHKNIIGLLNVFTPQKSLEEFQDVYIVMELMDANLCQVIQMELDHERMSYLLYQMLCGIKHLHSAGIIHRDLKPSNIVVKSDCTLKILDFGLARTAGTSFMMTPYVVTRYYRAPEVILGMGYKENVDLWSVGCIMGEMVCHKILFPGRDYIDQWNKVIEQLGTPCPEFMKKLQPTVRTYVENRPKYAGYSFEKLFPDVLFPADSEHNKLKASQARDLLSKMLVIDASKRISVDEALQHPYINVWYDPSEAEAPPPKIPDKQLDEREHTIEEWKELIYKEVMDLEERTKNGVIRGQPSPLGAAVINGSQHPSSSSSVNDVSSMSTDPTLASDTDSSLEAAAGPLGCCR
Sequence of Mitogen-activated protein kinase 9 (P45984 whole entry): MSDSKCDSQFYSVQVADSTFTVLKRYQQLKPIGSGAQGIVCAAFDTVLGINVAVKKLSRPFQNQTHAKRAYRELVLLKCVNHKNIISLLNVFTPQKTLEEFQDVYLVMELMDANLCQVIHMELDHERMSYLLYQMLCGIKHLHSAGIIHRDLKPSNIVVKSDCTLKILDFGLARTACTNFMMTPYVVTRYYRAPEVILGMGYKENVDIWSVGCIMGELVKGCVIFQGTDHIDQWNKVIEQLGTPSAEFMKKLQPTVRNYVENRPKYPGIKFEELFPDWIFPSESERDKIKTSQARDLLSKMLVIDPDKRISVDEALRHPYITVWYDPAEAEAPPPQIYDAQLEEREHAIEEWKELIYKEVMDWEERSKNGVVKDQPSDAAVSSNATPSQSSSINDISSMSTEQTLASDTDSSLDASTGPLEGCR

CCOc1nc(NCc2cc(OC)ccc2OC)cc(N)c1C#N
IC50 [1]: > 10000 nM

CS(=O)(=O)c1ccc(CNC(=O)c2cc(N)c(C#N)c(Cl)n2)cc1
IC50 [1]: 1500 nM | IC50 [2]: 4400 nM

CCOc1nc(C(=O)NCc2cccnc2)cc(N)c1C#N
half-life [3]: 0.0833 h | half-life [4]: 0.5 h | Cmax [5]: 2920 ng/mL | bioavailability [6]: 32.7% | AUC [7]: 3800 ng·h/mL

CCOc1nc(C(=O)NCc2cc(OC)ccc2OC)ccc1C#N
IC50 [1]: 230 nM | IC50 [8]: 2500 nM

CCOc1nc(C(=O)NCc2ccccc2)cc(N)c1C#N
IC50 [1]: 270 nM | IC50 [2]: 190 nM | IC50 [8]: 1100 nM

CCOc1nc(C(=O)NCc2ccc(-c3ccc(C(=O)O)cc3)nc2)cc(N)c1C#N
IC50 [1]: 4 nM | IC50 [2]: 11 nM | IC50 [8]: > 10000 nM

CCOc1nc(C(=O)NC)cc(N)c1C#N
IC50 [1]: 1200 nM | Ki [1]: 400 nM | IC50 [2]: 610 nM

CCOc1nc(C(=O)NCc2cc(OC)ccc2OC)cc(N)c1C#N
IC50 [1]: 71 nM | IC50 [2]: 120 nM | IC50 [8]: 640 nM

CCOc1nc(C(=O)NCc2ccc(S(C)(=O)=O)cc2)cc(N)c1Cl
half-life [4]: 5.1 h | Cmax [5]: 1780 ng/mL | Ki [9]: > 8500 nM | Ki [10]: > 9400 nM | bioavailability [6]: 124% | half-life [11]: > 1 h | Ki [12]: > 8400 nM | IC50 [13]: 120 nM | Ki [14]: > 1000 nM | Ki (Activated CDC42 kinase 1): > 9500 nM | AUC [7]: 15400 ng·h/mL

CCOc1nc(C(=O)NCc2ccccc2S(N)(=O)=O)cc(N)c1C#N
IC50 [1]: 12 nM | half-life [4]: 2.2 h | Cmax [5]: 1320 ng/mL | bioavailability [6]: 54.7% | half-life [11]: > 1 h | AUC [7]: 4000 ng·h/mL

CCOc1nc(C(=O)NCc2ccc(S(C)(=O)=O)cc2)ccc1C#N
IC50 [1]: 390 nM | IC50 [8]: 5800 nM

CCOc1nc(C(=O)N(C)Cc2ccc(S(C)(=O)=O)cc2)cc(N)c1C#N
IC50 [1]: 6400 nM | IC50 [2]: > 10000 nM | IC50 [8]: > 10000 nM

CCOc1nc(C(=O)NCc2ccc(S(C)(=O)=O)cc2)cc(N)c1C#N
half-life [3]: > 1 h | half-life [4]: 3.4 h | Cmax [5]: 1020 ng/mL | bioavailability [6]: 38.8% | half-life [11]: > 1 h | IC50 [15]: > 100000 nM | half-life [16]: > 1 h | AUC [7]: 6320 ng·h/mL

CC(C)Oc1nc(C(=O)NCc2ccc(S(C)(=O)=O)cc2)cc(N)c1Cl
IC50 [1]: 75 nM | IC50 [2]: 68 nM | IC50 [8]: 410 nM
